From US20240408064A1, “RAS INHIBITORS, COMPOSITIONS AND METHODS OF USE THEREOF” (GENETOLEAD INC., priority 2021, published 2024)
“Also recorded” adds a separate entry of the source.

Tests used:
HRas^G12V [1] = molecular target: T1, HRas^G12V (Homo sapiens (Human), UniProt P01112, G12V); assay: 19F DLB (ligand-observed 19F NMR) score; format: binding; design: scale not given here
Method in brief: (§1)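 In the T2-CPMG experiment, echo spacing was 1 ms and total delays ranged over eight values from 1 to 800 ms. Both scores come from 600 MHz NMR of 50 μM HRas G12V mixed with fragment pools at 240 μM each, in phosphate buffer pH 7.4 with NaCl, MgCl2 and TCEP-d16. Ligand-observed 19F spectra were recorded with 1H decoupling, 64 scans and a 5 s relaxation delay.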

HRas^G12V [2] = molecular target: T1, HRas^G12V; assay: 19F T2-CPMG NMR score; format: binding
Method in brief: as §1

HRas^G12V [3] = molecular target: T1, HRas^G12V; assay: Overall binding/activity in the various assays (NMR consensus binding)
Method in brief: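 Fragments (240 µM each, pooled) screened against 50 µM HRas^G12V in 25 mM sodium phosphate pH 7.4, 150 mM NaCl, 5 mM MgCl2, 1 mM TCEP-d16 by 1H-decoupled 1D 19F NMR. Hits confirmed by ligand- and protein-observed 1D 1H, STD and T2-CPMG (aggregation check); consensus binding ranked, with 15N HSQC for sites and Kd.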

O=C(NCCc1c[nH]c2cc(F)ccc12)C1CCOC1 (stereo not drawn) [Compound 10063]
19F DLB Score (HRas^G12V [1]): 1.1 | 19F T2-CPMG Score (HRas^G12V [2]): 2.82 | Binding to HRas^G12V (in words) (HRas^G12V [3]): low or no binding

CN(C)CC(=O)Nc1cccc(NC(=O)Cc2c[nH]c3cc(F)cc(Cl)c23)c1 [Compound 11073]
19F DLB Score (HRas^G12V [1]): <LLOQ | 19F T2-CPMG Score (HRas^G12V [2]): <LLOQ | Activity ranking on HRas^G12V (in words) (HRas^G12V [3]): More active; also recorded: Most active

CN1CCC(NC(=O)Cc2c[nH]c3cc(F)ccc23)C(C(=O)O)C1 (stereo not drawn) [Compound 10119, 4-(2-(6-fluoro-1H-indol-3-yl)acetamido)-1-methylpiperidine-3-carboxylic acid]
19F DLB Score (HRas^G12V [1]): 0.87 | 19F T2-CPMG Score (HRas^G12V [2]): −0.46 | Binding to HRas^G12V (in words) (HRas^G12V [3]): low or no binding

O=C(O)[C@@H]1CN(C(=O)Cc2c[nH]c3cc(F)ccc23)CCO1 [Compound 10151]
19F DLB Score (HRas^G12V [1]): 1.29 | 19F T2-CPMG Score (HRas^G12V [2]): 3.24 | Binding to HRas^G12V (in words) (HRas^G12V [3]): low or no binding

Cc1[nH]c2cc(F)ccc2c1CC(=O)N1CCC1 [Compound 10077, 1-(azetidin-1-yl)-2-(6-fluoro-2-methyl-1H-indol-3-yl)ethan-1-one]
19F DLB Score (HRas^G12V [1]): 0.96 | 19F T2-CPMG Score (HRas^G12V [2]): 0.41 | Binding to HRas^G12V (in words) (HRas^G12V [3]): low or no binding

CC(=O)N1CCC[C@H](NC(=O)Cc2c[nH]c3cc(F)ccc23)C1 [Compound 10073, (S)—N-(1-acetylpiperidin-3-yl)-2-(6-fluoro-1H-indol-3-yl)acetamide]
19F DLB Score (HRas^G12V [1]): 1.17 | 19F T2-CPMG Score (HRas^G12V [2]): 2.3 | Binding to HRas^G12V (in words) (HRas^G12V [3]): low or no binding

CC1CN(C(=O)Cc2cc3ccc(F)cc3[nH]2)C1 [Compound 10143, 2-(6-fluoro-1H-indol-2-yl)-1-(3-methylazetidin-1-yl)ethan-1-one]
19F DLB Score (HRas^G12V [1]): 0.89 | 19F T2-CPMG Score (HRas^G12V [2]): 0.9 | Binding to HRas^G12V (in words) (HRas^G12V [3]): low or no binding

CC1(C)OC(=O)C(C(c2ccccc2F)c2c[nH]c3cc(F)ccc23)C(=O)O1 (stereo not drawn) [Compound 11042]
19F DLB Score (HRas^G12V [1]): 1.56 | 19F T2-CPMG Score (HRas^G12V [2]): 5.62 | Binding to HRas^G12V (in words) (HRas^G12V [3]): low or no binding

CCOC(=O)[C@H](C)NC(=O)Cc1c[nH]c2cc(F)ccc12 [Compound 10038]
19F DLB Score (HRas^G12V [1]): 1.1 | 19F T2-CPMG Score (HRas^G12V [2]): 2.19 | Binding to HRas^G12V (in words) (HRas^G12V [3]): low or no binding

O=C(Cc1c[nH]c2cc(F)ccc12)NCCc1cccnc1 [Compound 10029]
19F DLB Score (HRas^G12V [1]): 1.19 | 19F T2-CPMG Score (HRas^G12V [2]): 1.2 | Binding to HRas^G12V (in words) (HRas^G12V [3]): low or no binding

CCOC(=O)[C@H]1COCCN1C(=O)Cc1c[nH]c2cc(F)ccc12 [Compound 10121]
19F DLB Score (HRas^G12V [1]): 1.26 | 19F T2-CPMG Score (HRas^G12V [2]): 5.23 | Binding to HRas^G12V (in words) (HRas^G12V [3]): low or no binding

CN1CCN(C(=O)Cc2c[nH]c3cc(F)ccc23)[C@H](C(=O)O)C1 [Compound 10158]
19F DLB Score (HRas^G12V [1]): 0.93 | 19F T2-CPMG Score (HRas^G12V [2]): 2.14 | Binding to HRas^G12V (in words) (HRas^G12V [3]): low or no binding

CCOC(=O)[C@H]1CN(C(=O)Cc2c[nH]c3cc(F)ccc23)CCO1 [Compound 10169]
19F DLB Score (HRas^G12V [1]): 1.6 | 19F T2-CPMG Score (HRas^G12V [2]): 7.14 | Binding to HRas^G12V (in words) (HRas^G12V [3]): low or no binding

O=C(Cc1c[nH]c2cc(F)ccc12)N[C@H]1CCOC1 [Compound 10070]
19F DLB Score (HRas^G12V [1]): 1.46 | 19F T2-CPMG Score (HRas^G12V [2]): 5.56 | Binding to HRas^G12V (in words) (HRas^G12V [3]): low or no binding

CCOC(=O)C(CO)NC(=O)Cc1c[nH]c2cc(F)ccc12 (stereo not drawn) [Compound 10105]
19F DLB Score (HRas^G12V [1]): 1.2 | 19F T2-CPMG Score (HRas^G12V [2]): 2.44 | Binding to HRas^G12V (in words) (HRas^G12V [3]): low or no binding

O=C(O)C1CN(C(=O)Cc2c[nH]c3cc(F)ccc23)C1 [Compound 10113, 1-(2-(6-fluoro-1H-indol-3-yl)acetyl) azetidine-3-carboxylic acid]
19F DLB Score (HRas^G12V [1]): 1.29 | 19F T2-CPMG Score (HRas^G12V [2]): 2.55 | Binding to HRas^G12V (in words) (HRas^G12V [3]): low or no binding

O=C(O)[C@@H]1COCCN1C(=O)Cc1c[nH]c2cc(F)ccc12 [Compound 10150, (S)-4-(2-(6-fluoro-1H-indol-3-yl)acetyl)morpholine-3-carboxylic acid]
19F DLB Score (HRas^G12V [1]): 1.24 | 19F T2-CPMG Score (HRas^G12V [2]): 2.07 | Binding to HRas^G12V (in words) (HRas^G12V [3]): low or no binding
